In this test the test system is grey mold (Botrytis cinerea). The test can be described thus: grey mold on Frontelis strawberries 7 days post-harvest (FIG. 11).

SMILES strings stand for the structures.

Experimental: The four groups were evaluated for infestation with grey mold 7 days post-harvest.

`CC1(C(=O)Nc2ccc(O)c(Cl)c2Cl)CCCCC1` [Fenhexamid]: the “infestation with grey mold” value is on record as “exhibited at least some infestation”.
